Target: tau (Homo sapiens, UniProt P10636)
Test: MCE Phenols Library screening, tau biosensor cell seeding assay (AvZ)
Assay type: cell-based
Conditions: for Z repl 1 / Z Repl 2: Z score; for Z repl 1 / raw data 1: replicate 1; for Z Repl 2 / raw data 2: replicate 2; for AvZ (average z score of seeding, SDs from the mean level of seeding): 10 μM phenol in cell cultures, AD brain homogenate preincubated 16 hours, two biological replicates, positive = catalyzes seeding, negative = inhibits
[1] = average Z score of the two replicates, MCE Phenols Library screen
[2] = average puncta of the two replicates
[3] = average Z score of two replicates, Phenols Library screen
[4] = average Z score of the two replicates, tau seeding

Chain of tau (P10636 623-695 limits assumed): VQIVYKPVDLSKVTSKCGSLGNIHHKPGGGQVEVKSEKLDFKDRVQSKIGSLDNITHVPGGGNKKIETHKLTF

Structure (SMILES) | Z repl 1 | Z Repl 2 | av Z [1] | av puncta [2] | raw data 1 (puncta) | raw data 2 (puncta) | av Z [3] | av puncta (average of raw data 1 and 2) | AvZ (average z score of seeding, SDs from the mean level of seeding) | AvZ (average z score of seeding, SDs from the mean level of seeding) (listed as sinapine) | raw data 1 (raw puncta) | raw data 2 (raw puncta) | av Z [4]
Oc1ccc2c(c1)OCO2 [Sesamol] | -0.018 | -1.03 | -0.524 | 13948.1 | 26133.2 | 1763.04 | – | – | – | – | – | – | –
COc1cc(/C=C/C(=O)O[C@H]2[C@H](O)[C@@H](CO)O[C@@]2(CO)O[C@H]2O[C@H](CO)[C@@H](O)[C@H](O)[C@H]2O)ccc1O [Sibiricose A5] | -0.765 | -0.196 | -0.481 | 13916.2 | 17163.5 | 10668.8 | – | – | – | – | – | – | –
COc1cc([C@@H]2Oc3c(O)cc([C@H]4Oc5cc(O)cc(O)c5C(=O)[C@@H]4O)cc3[C@H]2CO)ccc1O [Silychristin] | 0.429 | -0.406 | – | – | 31503 | 8429.95 | 0.012 | 19966.5 | – | – | – | – | –
COc1cc(/C=C/C=O)cc(OC)c1O [Sinapaldehyde] | 0.021 | 0.172 | – | – | 26603.6 | 14600.1 | – | 20601.9 | 0.096 | – | – | – | –
COc1cc(/C=C/C(=O)OCC[N+](C)(C)C)cc(OC)c1O.N#C[S-] [Sinapine (thiocyanate)] | 0.104 | -0.095 | – | – | 27602.3 | 11751.4 | – | 19676.8 | 0.005 | – | – | – | –
COc1cc(/C=C/C(=O)OCC[N+](C)(C)C)cc(OC)c1O [Sinapine] | -0.962 | -0.305 | – | 12156.4 | 14803.5 | 9509.32 | – | – | -0.633 | −0.633 | – | – | –
COC1=C[C@@H]2[C@@H]3Cc4ccc(OC)c(O)c4[C@]2(CCN3C)CC1=O.Cl [Sinomenine hydrochloride] | -0.595 | 0.066 | -0.264 | 16340.1 | – | – | – | – | – | – | 19209.2 | 13470.9 | –
C=C(C)[C@H](CC=C(C)C)Cc1c(O)cc(O)c2c1O[C@H](c1ccc(O)cc1O)CC2=O [Sophoraflavanone G] | -0.704 | -0.412 | -0.558 | 13130.1 | 17897.8 | 8362.49 | – | – | – | – | – | – | –
O=c1c(O)c(-c2ccc(O[C@@H]3O[C@H](CO)[C@@H](O)[C@H](O)[C@H]3O)c(O)c2)oc2cc(O)cc(O)c12 [Spiraeoside] | -1.012 | -0.12 | -0.566 | 12842 | 14202.4 | 11481.5 | – | – | – | – | – | – | –
COc1cc(O)c2c(=O)c3c(O[C@@H]4O[C@H](CO)[C@@H](O)[C@H](O)[C@H]4O)ccc(O)c3oc2c1 [Swertianolin] | -0.114 | 0.052 | – | – | 24974.7 | 13320.3 | -0.031 | 19147.5 | – | – | – | – | –
COc1cc(C=O)cc(OC)c1O [Syringaldehyde] | 0.142 | -0.778 | – | 16255.1 | – | – | – | – | -0.318 | – | 28055.2 | 4454.92 | –
COc1cc(C(=O)O)cc(OC)c1O [Syringic acid] | 0.138 | 0.027 | – | – | 28000.6 | 13051.1 | – | 20525.8 | 0.082 | – | – | – | –
COc1ccc(-c2oc3cc(O)cc(O)c3c(=O)c2O)cc1O [Tamarixetin] | -0.357 | -0.633 | -0.495 | 14033.4 | 22060 | 6006.83 | – | – | – | – | – | – | –
O=C(OC[C@H]1O[C@@H](OC(=O)c2cc(O)c(O)c(OC(=O)c3cc(O)c(O)c(O)c3)c2)[C@H](OC(=O)c2cc(O)c(O)c(OC(=O)c3cc(O)c(O)c(O)c3)c2)[C@@H](OC(=O)c2cc(O)c(O)c(OC(=O)c3cc(O)c(O)c(O)c3)c2)[C@@H]1OC(=O)c1cc(O)c(O)c(OC(=O)c2cc(O)c(O)c(O)c2)c1)c1cc(O)c(O)c(OC(=O)c2cc(O)c(O)c(O)c2)c1 [Tannic acid] | -2.109 | -1.136 | -1.623 | – | 1030.3 | 629.309 | – | 829.805 | – | – | – | – | –
COc1cc(O)c2c(=O)cc(-c3ccccc3)oc2c1 [Tectochrysin] | 0.481 | -0.371 | – | – | 32119.1 | 8798.38 | 0.055 | 20458.8 | – | – | – | – | –
COc1c(O)cc2occ(-c3ccc(O)cc3)c(=O)c2c1O [Tectorigenin] | -0.071 | -0.055 | – | – | 25501.8 | 12177 | -0.063 | 18839.4 | – | – | – | – | –
COc1cc(/C=C/C(=O)O[C@H]2[C@H](O)[C@@H](CO)O[C@@]2(CO)O[C@H]2O[C@H](COC(=O)c3ccc(O)cc3)[C@@H](O)[C@H](O)[C@H]2O)cc(OC)c1O [Tenuifoliside B] | -0.53 | -0.01 | -0.27 | 16324 | – | – | – | – | – | – | 19990.7 | 12657.2 | –
O=C(O)Cc1cc(I)c(Oc2cc(I)c(O)c(I)c2)c(I)c1 [Tetrac] | 0.158 | -0.425 | – | – | 28241.9 | 8231.59 | -0.133 | 18236.7 | – | – | – | – | –
CN(C)[C@@H]1C(O)=C(C(N)=O)C(=O)[C@@]2(O)C(O)=C3C(=O)c4c(O)cccc4[C@@](C)(O)[C@H]3C[C@@H]12.Cl [Tetracycline (hydrochloride)] | 0.657 | 0.47 | – | – | 34234.2 | 17786.4 | – | 26010.3 | – | – | – | – | 0.563
COc1cc(CCC(=O)CC(=O)CCc2ccc(O)c(OC)c2)ccc1O [Tetrahydrocurcumin] | 0.298 | -0.72 | -0.211 | 17498 | – | – | – | – | – | – | 29921.4 | 5074.48 | –
COc1ccc(/C=C/C(=O)C(C)(C)C(=O)/C=C/c2ccc(OC)c(OC)c2)cc1OC [Tetramethylcurcumin] | -1.086 | -0.943 | -1.014 | – | 13309.5 | 2696.76 | – | 8003.14 | – | – | – | – | –
O=C(O[C@@H]1Cc2c(O)cc(O)cc2O[C@@H]1c1cc(O)c(O)c2c(=O)c(O)cc([C@H]3Oc4cc(O)cc(O)c4C[C@H]3O)cc12)c1cc(O)c(O)c(O)c1 [Theaflavin-3'-gallate] | -2.15 | -1.186 | – | – | 542.499 | 98.608 | – | 320.554 | – | – | – | – | –
O=C(O[C@@H]1Cc2c(O)cc(O)cc2O[C@@H]1c1cc(O)c(=O)c2c(O)c(O)cc([C@H]3Oc4cc(O)cc(O)c4C[C@H]3O)c2c1)c1cc(O)c(O)c(O)c1 [Theaflavin-3-gallate] | -2.035 | -1.192 | -1.614 | – | 1914.49 | 30.952 | – | 972.721 | – | – | – | – | –
O=c1c(O)cc([C@H]2Oc3cc(O)cc(O)c3C[C@H]2O)cc2c([C@H]3Oc4cc(O)cc(O)c4C[C@H]3O)cc(O)c(O)c12 [Theaflavin] | -0.67 | – | -0.921 | – | 18310.3 | 248.899 | – | 9279.59 | – | – | – | – | –
O=C(O[C@@H]1[C@@H](O)[C@H](Oc2cc(O)c(C(=O)CCc3ccccc3)c(O)c2)O[C@@H]2COC(=O)c3cc(O)c(O)c(O)c3-c3c(cc(O)c(O)c3O)C(=O)O[C@@H]12)c1cc(O)c(O)c(O)c1 [Thonningianin A] | -1.226 | -0.652 | -0.939 | – | 11629.9 | 5797.27 | – | 8713.6 | – | – | – | – | –
CC(=O)Oc1ccc(/C=C/c2cc(OC(C)=O)cc(OC(C)=O)c2)cc1 [Triacetylresveratrol] | -0.969 | -0.064 | -0.517 | 13396.5 | 14710.4 | 12082.6 | – | – | – | – | – | – | –
O=C(/C=C/c1ccc(O)cc1)OC[C@H]1O[C@@H](Oc2c(-c3ccc(O)cc3)oc3cc(O)cc(O)c3c2=O)[C@H](O)[C@@H](O)[C@@H]1O [Tribuloside] | -0.731 | -0.145 | -0.438 | 14393.7 | – | – | – | – | – | – | 17568.8 | 11218.6 | –
O=C(CCc1ccc(O)cc1)c1c(O)cc(O[C@@H]2O[C@H](CO)[C@@H](O)[C@H](O)[C@H]2O)cc1O [Trilobatin] | 0.764 | -0.24 | – | – | 35522.1 | 10201.8 | – | 22862 | – | – | – | – | 0.262
CC(C)c1ccc2c(c1O)CC[C@H]1C3=C(CC[C@]21C)C(=O)OC3 [Triptophenolide] | 0.422 | 0.028 | – | – | 31418 | 13068.1 | – | 22243.1 | – | – | – | – | 0.225
C[C@@H]1O[C@@H](OC[C@H]2O[C@@H](Oc3c(-c4ccc(OCCO)c(OCCO)c4)oc4cc(OCCO)cc(O)c4c3=O)[C@H](O)[C@@H](O)[C@@H]2O)[C@H](O)[C@H](O)[C@H]1O [Troxerutin] | -0.342 | -0.568 | -0.455 | 14474.7 | 22246.4 | 6703.04 | – | – | – | – | – | – | –

From article PMC11784839, “Monoaminergic neurotransmitters are bimodal effectors of tau aggregation” (Science Advances, 2025)
